# Reference: PubChem BioAssay (NCI)
#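 Interpolation was linear, between the two tested concentrations surrounding the appropriate level; five concentrations were tested over 48 hours in 96-well plates. At the TGI there is no net growth.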
# Tests used:
# Test in all cases: NCI tumour cell line growth inhibition, 48 h
# SN12C renal = system: SN12C renal
# SNB-78 CNS = system: SNB-78 CNS
# RXF 393 renal = system: RXF 393 renal
# SW-620 colon = system: SW-620 colon
# CCRF-CEM leukemia = system: CCRF-CEM leukemia
# SK-MEL-2 melanoma = system: SK-MEL-2 melanoma
# UACC-62 melanoma = system: UACC-62 melanoma
# HOP-62 NSCLC = system: HOP-62 NSCLC
# COLO 205 colon = system: COLO 205 colon
# KM12 colon = system: KM12 colon
# HT29 colon = system: HT29 colon
# M19-MEL melanoma = system: M19-MEL melanoma
# NCI-H226 lung = system: NCI-H226 lung
# DLD-1 colon = system: DLD-1 colon
# OVCAR-4 ovarian = system: OVCAR-4 ovarian
# A498 renal = system: A498 renal
# SNB-75 CNS = system: SNB-75 CNS
# SF-268 CNS = system: SF-268 CNS
# A549 NSCLC = system: A549 NSCLC
# SF-539 CNS = system: SF-539 CNS
# OVCAR-8 ovarian = system: OVCAR-8 ovarian
# SK-OV-3 ovarian = system: SK-OV-3 ovarian
# LOX IMVI melanoma = system: LOX IMVI melanoma
# MCF7 breast = system: MCF7 breast
# HL-60(TB) leukemia = system: HL-60(TB) leukemia
# HCC-2998 colon = system: HCC-2998 colon
# XF 498 CNS = system: XF 498 CNS
# UO-31 renal = system: UO-31 renal
# EKVX NSCLC = system: EKVX NSCLC
# NCI-H460 lung = system: NCI-H460 lung
# SK-MEL-5 melanoma = system: SK-MEL-5 melanoma
# HOP-92 NSCLC = system: HOP-92 NSCLC
# IGROV1 ovarian = system: IGROV1 ovarian
# MALME-3M melanoma = system: MALME-3M melanoma
# RPMI-8226 leukemia = system: RPMI-8226 leukemia
# DMS 114 small cell lung = system: DMS 114 small cell lung
# K-562 leukemia = system: K-562 leukemia
# SN12K1 renal = system: SN12K1 renal
# UACC-257 melanoma = system: UACC-257 melanoma
# OVCAR-5 ovarian = system: OVCAR-5 ovarian
# KM20L2 colon = system: KM20L2 colon
# OVCAR-3 ovarian = system: OVCAR-3 ovarian
# SF-295 CNS = system: SF-295 CNS
# NCI-H522 lung = system: NCI-H522 lung
# SNB-19 CNS = system: SNB-19 CNS
# SK-MEL-28 melanoma = system: SK-MEL-28 melanoma
# HCT-15 colon = system: HCT-15 colon
# U251 CNS = system: U251 CNS
# P388 leukemia = system: P388 leukemia
# HOP-18 NSCLC = system: HOP-18 NSCLC
# NCI-H23 lung = system: NCI-H23 lung
# CAKI-1 renal = system: CAKI-1 renal
# P388/ADR leukemia = system: P388/ADR leukemia
# NCI/ADR-RES ovarian = system: NCI/ADR-RES ovarian
# MOLT-4 leukemia = system: MOLT-4 leukemia
# DMS 273 small cell lung = system: DMS 273 small cell lung
# HCT-116 colon = system: HCT-116 colon
structure (smiles),measurement,setting,value
CCOC(=O)CNC(=O)NC12CC3CC(CC(C3)C1)C2,TGI,SN12C renal,> 550 µM
same,TGI,SNB-78 CNS,> 520 µM
same,TGI,RXF 393 renal,259 µM
same,TGI,SW-620 colon,> 550 µM
same,TGI,CCRF-CEM leukemia,> 550 µM
same,TGI,SK-MEL-2 melanoma,372 µM
same,TGI,UACC-62 melanoma,416 µM
same,TGI,HOP-62 NSCLC,> 502 µM
same,TGI,COLO 205 colon,363 µM
same,TGI,KM12 colon,> 449 µM
same,TGI,HT29 colon,> 550 µM
same,TGI,M19-MEL melanoma,369 µM
same,TGI,NCI-H226 lung,> 473 µM
same,TGI,DLD-1 colon,> 87.2 µM
same,TGI,OVCAR-4 ovarian,> 550 µM
same,TGI,A498 renal,462 µM
same,TGI,SNB-75 CNS,408 µM
same,TGI,SF-268 CNS,> 550 µM
same,TGI,A549 NSCLC,> 550 µM
same,TGI,SF-539 CNS,> 550 µM
same,TGI,OVCAR-8 ovarian,> 550 µM
same,TGI,SK-OV-3 ovarian,> 517 µM
same,TGI,LOX IMVI melanoma,> 550 µM
same,TGI,MCF7 breast,505 µM
same,TGI,HL-60(TB) leukemia,543 µM
same,TGI,HCC-2998 colon,319 µM
same,TGI,XF 498 CNS,246 µM
same,TGI,UO-31 renal,512 µM
same,TGI,EKVX NSCLC,> 347 µM
same,TGI,NCI-H460 lung,> 460 µM
same,TGI,SK-MEL-5 melanoma,330 µM
same,TGI,HOP-92 NSCLC,216 µM
same,TGI,IGROV1 ovarian,> 550 µM
same,TGI,MALME-3M melanoma,420 µM
same,TGI,RPMI-8226 leukemia,> 550 µM
same,TGI,DMS 114 small cell lung,> 511 µM
same,TGI,K-562 leukemia,> 550 µM
same,TGI,SN12K1 renal,503 µM
same,TGI,UACC-257 melanoma,477 µM
same,TGI,OVCAR-5 ovarian,> 550 µM
same,TGI,KM20L2 colon,> 550 µM
same,TGI,OVCAR-3 ovarian,398 µM
same,TGI,SF-295 CNS,> 550 µM
same,TGI,NCI-H522 lung,> 536 µM
same,TGI,SNB-19 CNS,548 µM
same,TGI,SK-MEL-28 melanoma,> 539 µM
same,TGI,HCT-15 colon,> 550 µM
same,TGI,U251 CNS,> 550 µM
same,TGI,P388 leukemia,430 µM
same,TGI,HOP-18 NSCLC,537 µM
same,TGI,NCI-H23 lung,> 515 µM
same,TGI,CAKI-1 renal,> 487 µM
same,TGI,P388/ADR leukemia,> 550 µM
same,TGI,NCI/ADR-RES ovarian,> 550 µM
same,TGI,MOLT-4 leukemia,> 550 µM
same,TGI,DMS 273 small cell lung,> 550 µM
same,TGI,HCT-116 colon,> 550 µM
